# Test results published in ChEMBL document CHEMBL5244229, “Thiazole-containing compounds as therapeutic targets for cancer therapy” (Eur J Med Chem, 2020).
# Assays:
# MV4-11 = experiment: Anticancer activity against human MV4-11 cells; assay type: functional, cell-based
# HCT-116 = experiment: Anticancer activity against human HCT-116 cells; assay type: functional, cell-based
# HeLa = experiment: Cytotoxicity against human HeLa cells; assay type: functional, cell-based
# [1] = biological target: Epidermal growth factor receptor (Homo sapiens, UniProt P00533); experiment: Inhibition of EGFR (unknown origin)
# HepG2 [2] = experiment: Cytotoxicity against human HepG2 cells; assay type: functional, cell-based
# SNU-638 = experiment: Cytotoxicity against human SNU-638 cells; assay type: functional, cell-based
# MKN-74 = experiment: Cytotoxicity against human MKN-74 cells; assay type: functional, cell-based
# [3] = Cytotoxicity against human SNU-216 cells; assay type: functional, cell-based
# AGS = experiment: Cytotoxicity against human AGS cells; assay type: functional, cell-based
# Hep 3B2 = experiment: Cytotoxicity against human Hep3B cells; assay type: functional, cell-based
# SK-HEP1 = experiment: Cytotoxicity against human SK-HEP1 cells; assay type: functional, cell-based
# HepG2 [4] = experiment: Anticancer activity against human HepG2 cells; assay type: functional, cell-based
# MCF7 [5] = experiment: Anticancer activity against human MCF7 cells; assay type: functional, cell-based
# MCF7 [6] = experiment: Cytotoxicity against human MCF7 cells; assay type: functional, cell-based
# Epidermal growth factor receptor, sequence (P00533 whole entry): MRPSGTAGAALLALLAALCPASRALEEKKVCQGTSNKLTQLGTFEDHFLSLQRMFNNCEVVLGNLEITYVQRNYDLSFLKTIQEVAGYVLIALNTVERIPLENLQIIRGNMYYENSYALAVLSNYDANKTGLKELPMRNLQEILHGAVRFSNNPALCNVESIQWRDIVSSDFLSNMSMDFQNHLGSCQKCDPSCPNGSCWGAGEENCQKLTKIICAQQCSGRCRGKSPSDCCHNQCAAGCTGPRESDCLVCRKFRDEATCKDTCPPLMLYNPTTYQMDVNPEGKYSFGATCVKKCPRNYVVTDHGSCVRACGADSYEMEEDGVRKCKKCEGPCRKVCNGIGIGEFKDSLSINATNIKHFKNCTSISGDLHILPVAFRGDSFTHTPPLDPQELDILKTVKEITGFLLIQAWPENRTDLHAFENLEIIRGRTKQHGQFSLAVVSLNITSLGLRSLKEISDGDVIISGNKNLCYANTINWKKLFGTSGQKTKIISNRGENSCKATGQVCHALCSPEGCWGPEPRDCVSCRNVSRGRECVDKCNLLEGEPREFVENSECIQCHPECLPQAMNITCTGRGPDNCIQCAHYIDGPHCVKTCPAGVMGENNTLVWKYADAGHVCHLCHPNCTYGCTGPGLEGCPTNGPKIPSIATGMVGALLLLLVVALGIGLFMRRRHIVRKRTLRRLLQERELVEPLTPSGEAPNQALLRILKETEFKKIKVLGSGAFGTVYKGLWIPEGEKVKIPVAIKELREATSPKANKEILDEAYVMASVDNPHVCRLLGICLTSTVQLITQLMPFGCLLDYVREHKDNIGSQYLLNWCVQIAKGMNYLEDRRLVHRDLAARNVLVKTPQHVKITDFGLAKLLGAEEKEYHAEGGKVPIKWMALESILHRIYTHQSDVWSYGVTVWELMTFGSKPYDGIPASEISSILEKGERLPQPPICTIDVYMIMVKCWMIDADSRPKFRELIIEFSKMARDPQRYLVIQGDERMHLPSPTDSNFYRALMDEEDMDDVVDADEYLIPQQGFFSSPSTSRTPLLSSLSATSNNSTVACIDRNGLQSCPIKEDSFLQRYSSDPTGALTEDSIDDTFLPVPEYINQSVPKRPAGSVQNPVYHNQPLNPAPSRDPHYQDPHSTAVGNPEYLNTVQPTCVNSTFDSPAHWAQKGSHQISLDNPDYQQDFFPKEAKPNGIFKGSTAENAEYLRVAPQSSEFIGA
compound,measurement,setting,value
COc1ccc(S(=O)(=O)Nc2ccc(-c3csc(N/N=C/c4ccc(N(CCCl)CCCl)cc4)n3)cc2)cc1,IC50,MV4-11,2170 nM
same,IC50,HCT-116,3.02 µg/mL
COc1cccc2c1C(=O)c1c(O)c3c(c(O)c1C2=O)C[C@@](O)(C(=O)CO)C[C@@H]3O[C@H]1C[C@H](N)[C@H](O)[C@H](C)O1.Cl [DOXORUBICIN HYDROCHLORIDE],GI50,HeLa,< 80 µg/mL
N#Cc1ccc(S(=O)(=O)Nc2ccc(-c3csc(N/N=C/c4ccc(N(CCCl)CCCl)cc4)n3)cc2)cc1,IC50,MV4-11,2170 nM
same,IC50,HCT-116,3.02 µg/mL
CC(C)=NNc1nc(-c2ccc(Cl)cc2)cs1,IC50,[1],2000 nM
Cc1nc(C(Cl)(Cl)S(=O)(=O)c2ccc(Cl)cc2)c([N+](=O)[O-])s1,CC50,HepG2 [2],< 2500 nM
COc1cc(C(=O)c2csc(-c3ccc4[nH]ccc4c3)n2)cc(OC)c1OC,IC50,[1],8 nM
C/C=C1\NC(=O)[C@H]([C@@H](C)O)NC(=O)c2csc(n2)-c2ccc(-c3nc(-c4nc(C(=O)N/C(=C/C)C(=O)NC[C@@H](C)O)cs4)cs3)nc2-c2csc(n2)[C@H]([C@@H](C)O)NC(=O)c2csc(n2)[C@H](C(C)(C)O)NC(=O)c2csc1n2,IC50,HepG2 [2],1340 nM
same,IC50,SNU-638,990 nM
same,IC50,MKN-74,11000 nM
same,IC50,[3],7500 nM
same,IC50,AGS,1430 nM
same,IC50,Hep 3B2,2340 nM
same,IC50,SK-HEP1,2120 nM
Cc1c(C(=O)Nc2ccccc2)s/c(=N\NC(=O)c2cnc(-c3ccccc3)s2)n1-c1ccccc1,IC50,HepG2 [4],1.98 µg/mL
CC/C(=C(\c1ccccc1)c1ccc(OCCN(C)C)cc1)c1ccccc1 [TAMOXIFEN],IC50,MCF7 [5],3530 nM
Cc1nc(C(Cl)(Cl)S(=O)(=O)c2ccc(F)cc2)c([N+](=O)[O-])s1,CC50,HepG2 [2],< 2500 nM
C/C(=N\NC(=O)c1sc(-c2ccccc2)nc1C)C1=NN(C)C(/N=N/C(=O)c2sc(-c3ccccc3)nc2-c2ccc(C)cc2)C1 (stereo unspecified),IC50,HepG2 [4],1.61 µg/mL
Cc1nc(C(Cl)(Cl)S(=O)(=O)c2ccccc2)c([N+](=O)[O-])s1,CC50,HepG2 [2],< 2500 nM
COc1cc(C(=NC#N)c2csc(-c3ccccc3)n2)cc(OC)c1OC,IC50,[1],20 nM
CC1=C(C(=O)Nc2nc(-c3ccccc3)cs2)C(c2ccc(Cl)cc2)C(C(=O)Nc2nc(-c3ccccc3)cs2)=C(C)N1,IC50,HeLa,2 nM
CCOC(=O)c1csc(NC(=S)Nc2ccc(Cl)cc2)n1,IC50,[1],10100 nM
C/C(=N/N=c1/[nH]c(C)c(/N=N/c2ccccc2)s1)[C@H]1CC[C@H]2[C@@H]3CCC4=CC(=O)CC[C@]4(C)[C@H]3CC[C@]12C,IC50,MCF7 [5],8870 nM
O=C(NC1=NC2C(=O)NN=C(c3ccc(Br)cc3)C2S1)Nc1ccc(Cl)cc1 (stereo unspecified),IC50,[1],80 nM
C/C(=N/N=c1/[nH]c(-c2ccccc2)c(/N=N/c2ccccc2)s1)[C@H]1CC[C@H]2[C@@H]3CCC4=CC(=O)CC[C@]4(C)[C@H]3CC[C@]12C,IC50,MCF7 [5],5280 nM
Cc1nc(C(Cl)(Cl)S(=O)(=O)c2ccc(Br)cc2)c([N+](=O)[O-])s1,CC50,HepG2 [2],< 2500 nM
CC1=C(C(=O)Nc2nc(-c3ccccc3)cs2)C(c2ccc([N+](=O)[O-])cc2)C(C(=O)Nc2nc(-c3ccccc3)cs2)=C(C)N1,IC50,HeLa,3 nM
CC(=O)Nc1ccc(NC(=O)/C(C#N)=C2\SC=C(c3ccccc3)N2c2ccccc2)cc1,IC50,MCF7 [6],9.3 µg/mL
CC(=O)Nc1ccc(NC(=O)/C(C#N)=C2\SC=C(C)N2c2ccccc2)cc1,IC50,MCF7 [6],6.9 µg/mL
FC(F)(F)c1ccc(/C=N/Nc2nc(-c3ccc(Cl)cc3Cl)cs2)cc1,IC50,[1],5480 nM
O=S(=O)(Nc1ccc(-c2csc(N/N=C/c3ccc(N(CCCl)CCCl)cc3)n2)cc1)c1ccc(F)cc1,IC50,MV4-11,2170 nM
same,IC50,HCT-116,3.02 µg/mL
Cc1ccc(-c2nc(C(=O)Nc3cccc(Cl)c3)cs2)cc1,IC50,HepG2 [4],11600 nM
O=[N+]([O-])c1ccc(-c2nn(-c3nc(-c4ccc(Br)cc4)cs3)cc2/C=N/c2nc[nH]n2)cc1,GI50,MCF7 [5],> 80 µg/mL
same,GI50,HeLa,1.2 µg/mL
